The test system of assay [1] is GH3 pituitary tumor cells. Briefly: Tumor necrosis in GH3 tumors (prolactinomas) after CA4P (H&E histology, image analysis). Format: in vivo, rat. Here is the method:
(§1) Eighteen female Wistar Furth rats (Charles River, France), weighing approximately 130-140 g, were inoculated subcutaneously in the flanks with 1×10^6 GH3 pituitary tumor cells. Tumors were typically used for experimentation when they reached approximately 1 cm in diameter, or 300-1000 mm^3. Blood was taken from the tail vein of each rat 24 h before treatment with 100 mg/kg of vascular disrupting agent, CA4P, formulated in 20% of 5% aqueous sodium bicarbonate in 80% phosphate buffered saline. The CA4P was administered as a bolus injection through the tail vein. 24 h or 48 h after treatment a further blood sample was taken from the tail vein and the rats euthanized. Tumors were excised, fixed in formalin and stained with H&E for histology. Necrosis was determined by image analysis (Image J).

The subject of assay [2] is GH3 pituitary tumor cells. Briefly: Prolactin and growth hormone (ELISA) in GH3 tumor-bearing rats treated with CA4P. Format: in vivo, rat. Also on record: tumor GH pre- / tumor GH post-: unit not given beside the values. As to conditions: for Growth Hormone tumor-derived: historical background 46 ng/ml subtracted; for Prolactin tumor-derived: historical basal level 26 ng/ml subtracted; for GH % decrease: tumor-derived GH. As to the method: as §1
Prolactin and growth hormone were measured using commercial ELISA's (SPI/BIO Bertin Pharma/Cayman kits sourced from Bioquote Limited, York, UK). Tumor-derived prolactin levels were calculated assuming a historical basal level of 26 ng/ml. […] Tumor-derived growth hormone levels were calculated by subtracting a historical value for background growth hormone of 46 ng/ml. […] All measurements for the control group were performed 24 hours after injection of saline.
(In general: An ELISA detects its analyte on a solid surface through an enzyme-linked reagent.)

In assay [3] the test system is Pancreatic Endocrine Tumors. Briefly: Serum insulin (ELISA) in Pdx1-Cre:Men1floxed/floxed mice treated with CA4P. Format: in vivo. As to the method:
Eight Pdx1-Cre:Men1floxed/floxed mice (described in Shen et al. Cancer Res. 2009, 69(5):1858-66) were divided into treated group (n=4) and control group (n=4). In an ongoing experiment, the mice from the treated group and control group were injected i.p. daily with CA4P (100 mg/kg) and saline, respectively, for three days monthly. The mice underwent a 24 h fast prior to collecting whole blood via a retro-orbital bleeding technique weekly at pre- and post-treatment. Glucose levels were monitored by enzymatic colorimetric assay. All mice underwent a microPET/CT scan monthly. Anti-tumor activity was measured by standardized-uptake value (SUV) analysis. All mice were weighed three times per week as an indicator of toxicity.

Assay [4] concerns GH3 pituitary tumor cells. Briefly: Tumor necrosis in GH3 rat pituitary tumors after ZD6126 (H&E histology, image analysis). Format: in vivo. As to conditions: individual rats; 24 h after 50 mg/kg ZD6126 bolus tail vein. Here is the method: (§2) Four female Wistar Furth rats, weighing approximately 160 g, were inoculated subcutaneously in the flanks with GH3 pituitary tumor cells. Tumors were typically used for experimentation when they reached approximately 1000-3000 mm^3. Blood was taken from the tail vein of each rat 24 h before treatment with 50 mg/kg of vascular disrupting agent, ZD6126, formulated in 20% of 5% aqueous sodium bicarbonate in 80% phosphate buffered saline. The vascular disrupting agent was administered as a bolus injection through the tail vein. 24 h after treatment a further blood sample was taken from the tail vein and the rats euthanized. Tumors were excised, fixed in formalin and stained with H&E for histology. Necrosis was determined by image analysis (Image J). Blood samples were analyzed for prolactin and growth hormone at by ELISA using kits supplied by SPIbio.

Assay [5] relates to GH3 pituitary tumor cells. The assay is described as follows: Circulating growth hormone and prolactin (ELISA) in GH3 tumor-bearing rats treated with ZD6126. Format: in vivo, rat. Further details: Growth Hormone pre / Growth Hormone post / Prolactin pre / Prolactin post: unit not given beside the values. As to the method:
as §2
Since control animals had significant levels of both hormones (within the normal range) and since the VDA could not be expected to reduce normal host hormone production it might be reasonable to subtract a figure from each reading to allow for the persisting host-derived hormone. Although data on normal hormone levels were derived from a single control (non-tumor bearing) animal, the values are very much in agreement with those reported in the literature. Subtracting this value would give a rough estimate of the reduction in rats 1 and 2 of tumor-derived growth hormone of 72% and 40% and a reduction in tumor-derived prolactin of 65% and 33% respectively.

Assay [6] deals with carcinoid metastases. As to conditions: compared with 55% for hepatic artery embolization; cited from earlier work.
Assay [7] has as its system neuroendocrine tumor. As to conditions: prolonged treatment, in combination with octreotide (Yao et al. 2008); cited from earlier work.
Where [8] appears, read: 24 h after 100 mg/kg CA4P, individual rats.
Setting [9] is: 48 h after 100 mg/kg CA4P, individual rats.
Setting [10] is: 24 h after 50 mg/kg ZD6126, individual rats, ±SD.
Where [11] appears, read: baseline, blood 24 h before ZD6126 treatment, individual rats, ±SD.
The mark [12] stands for this setting: pre vs 24 h after 50 mg/kg ZD6126, individual rats.
Setting [13] is: rats 1 and 2, rough estimate after subtracting value of tumor-free control.

“And” between values parts separate entries of the source, which are not always exact repeats. Identical values can stand only once.

Regarding `COc1ccc(/C=C\c2cc(OC)c(OC)c(OC)c2)cc1OP(=O)(O)O` [CA4P, combretastatin A-4 phosphate], the “% tumor necrosis” value in assay [1] (24 h after 100 mg/kg CA4P, group mean) was 43.7 ± 29.6%; in assay [1] (setting [8]) it was 83% and 58% and 3% and 59% (2×); in assay [1] (48 h after 100 mg/kg CA4P, group mean), 61.7 ± 27.4%; in assay [1] (setting [9]), 77% and 30%. Moreover, the Prolactin total in assay [2] (24 h after 100 mg/kg CA4P bolus tail vein, n=6) is given as 64.6 ± 19.1 ng/ml ± SD; in assay [2] (48 h after 100 mg/kg CA4P, n=2), 54.3 ± 20.2 ng/ml ± SD. Also, the “Growth Hormone tumor-derived” value in assay [2] (24 h after 100 mg/kg CA4P, n=6) is 29.1 ± 13.6 ng/ml ± SD; in assay [2] (48 h after 100 mg/kg CA4P, n=2), 20.8 ± 7.8 ng/ml ± SD. The Prolactin tumor-derived in assay [2] (24 h after 100 mg/kg CA4P, n=6) is given as 38.6 ± 19.1 ng/ml ± SD; in assay [2] (48 h after 100 mg/kg CA4P, n=2), 28.3 ± 20.2 ng/ml ± SD. Also, the “tumor GH post-” value in assay [2] (setting [8]) is 15.8 and 29.1 and 48.4 and 19.2 and 42.4; in assay [2] (setting [9]), 15.3 and 26.3. Moreover, the GH % decrease was 63.2% and 36.0% and 21.6% and 50.0% and 6.2% in assay [2] (setting [8]); 64.1% and 35.2% in assay [2] (setting [9]). The “Growth Hormone total” value was 75.1 ± 13.6 ng/ml ± SD in assay [2] (24 h after 100 mg/kg CA4P, n=6) and 66.8 ± 7.8 ng/ml ± SD in assay [2] (48 h after 100 mg/kg CA4P, n=2). The “tumor GH pre-” value in assay [2] (baseline before CA4P, individual rats, tumor-derived growth hormone) is 42.9 and 45.5 and 61.7 and 38.4 and 45.2 and 42.6 and 40.6. The “total and tumor-derived growth hormone after treatment (in words)” value in assay [2] (p<0.03, one-tailed t-test) was “statistically lower amount”. The “total and tumor-derived prolactin after treatment (in words)” value in assay [2] (p<0.04, one-tailed T-test) is listed as “statistically lower amount”. In addition, the “Serum Insulin” value in assay [3] (Day 0 (baseline), CA4P group n=4, P vs PBS 0.6720) is 3.695 ± 0.669 µg/L; in assay [3] (Day 4, CA4P 100 mg/kg i.p. daily for three days, 24 h fast, P vs PBS 0.3699), 3.060 ± 1.037 µg/L; in assay [3] (Day 11, CA4P 100 mg/kg i.p. daily for three days, 24 h fast, P vs PBS 0.0350) it was 2.495 ± 0.8722 µg/L.
In the case of `COc1cc2c(c(OC)c1OC)-c1ccc(OP(=O)(O)O)cc1[C@@H](NC(C)=O)CC2` [ZD6126], the “% necr. (tumor necrosis)” value in assay [4] was 39% and 42% and little or no necrosis and 0%. In assay [5] (setting [10]), the “Growth Hormone post” value was 91 ± 7 and 102 ± 4 and 204 ± 14 and 171 ± 11; the Prolactin post was 90 ± 2 and 78 ± 3 and 129 ± 5 and 52 ± 1. In assay [5] (setting [11]), the “Growth Hormone pre” value was 214 ± 11 and 139 ± 8 and 193 ± 4 and 146 ± 4; the Prolactin pre is 211 ± 28 and 104 ± 3 and 134 ± 17 and 53 ± 3. Moreover, in assay [5] (setting [12]), the “Growth Hormone Δ (percent reduction)” value was 57 and 26 and −5 and −16; the “Prolactin Δ (percent reduction)” value is 57 and 24 and 4 and 1. In assay [5] (setting [13]), the “reduction in tumor-derived prolactin” value was ~65% and ~33%; the “reduction of tumor-derived growth hormone” value is ~72% and ~40%.
Consider `CO[C@H]1C[C@@H]2CC[C@@H](C)[C@@](O)(O2)C(=O)C(=O)N2CCCC[C@H]2C(=O)O[C@H]([C@H](C)C[C@@H]2CC[C@@H](OCCO)[C@H](OC)C2)CC(=O)[C@H](C)/C=C(\C)[C@@H](O)[C@@H](OC)C(=O)[C@H](C)C[C@H](C)/C=C/C=C/C=C/1C` [everolimus], for which, in assay [6], the “response rate (Phase II trials)” value is 13%.
For the compound `COc1cc2ncnc(Nc3ccc(F)c(Cl)c3)c2cc1OCCCN1CCOCC1` [gefitinib], the “response rate (Phase II trials)” value in assay [6] was 2%.
For the compound `Cc1ccc(NC(=O)c2ccc(CN3CCN(C)CC3)cc2)cc1Nc1nccc(-c2cccnc2)n1` [imatinib], the “response rate (Phase II trials)” value in assay [6] is given as 4%.
`CNC(=O)c1cc(Oc2ccc(NC(=O)Nc3ccc(Cl)c(C(F)(F)F)c3)cc2)ccn1` [sorafenib]: the “response rate (Phase II trials)” value in assay [6] is 10%.
Consider `Clc1ccc(Nc2nnc(Cc3ccncc3)c3ccccc23)cc1` [valatinib], for which the “response rate (Phase II trials)” value in assay [6] is recorded as 0%.
Turning to bevacizumab: anti-VEGF antibody, in assay [7], the “neuroendocrine tumor patients achieving a meaningful reduction in urinary 5-HIAA” value is on record as 19% and the “patients achieving a reduction in plasma levels of chromogranin A” value is given as 6%. In assay [6], the “response rate (Phase II trials)” value is 18%.

(Values after patent publication US20150141349A1, “Method and Composition for Alleviating Tumor Symptoms” (Angiogene Pharmaceuticals Ltd., priority 2012, published 2015).)
